Each structure is given as a SMILES string. Where two headings read alike, the source gives them in different places.

Data set [1] is described as follows: Square wave voltammograms of electrode-attached biofilms. The data set is classed as physicochemical. The note with it: acquired immediately after transfer to anoxic reactors. As to the method:
FIG. 3: Electrochemical signal of wild type, Δphz*, and Δphz*+10 μM PYO showing PYO (E1/2=−250 mV vs Ag/AgCl) is the only redox active signal observed under these conditions and is retained by wild type biofilms. Square wave voltammograms acquired immediately after transfer to anoxic reactors.
Square Wave Voltammograms. Potential was scanned from +100 mV to −500 mV vs Ag/AgCl and in reverse with the following parameters: pulse height=50 mV, pulse width=66.6 ms, step height=−0.5 mV, and acquisition of the average current over the last 50% of each step. Square wave voltammograms were acquired immediately after transfer from oxic to anoxic conditions.

In data set [2] the test system is PA14. The experiment in a line: Reduction of redox-active compound by PA14 (Table 4). The data set is classed as cell-based, P. aeruginosa. An excerpt:
(§1) Phenazines and other redox active compound in the sense of the disclosure can be further characterized by various electrical properties such as a standard electrode potential E° vs. NHE of −500 mV to 500 mV and other properties such as number of redox cycle over a certain period of time (e.g. number of days) as ability to support survival and susceptibility to reduction by enzymes and/or bacterial strains.

The conditions of data set [3]: oxidized form; literature values (footnotes a, c, d); cited from earlier work.
The conditions of data set [4]: from Wang and Newman (2008), cited from earlier work.
The conditions of data set [5]: vs NHE at pH7; cited from earlier work.
In data set [6] the test system is PA14. Description: Redox cycles over 7 days and support of survival (Table 4). The data set is classed as cell-based, P. aeruginosa.
Description: as §1

The test system of data set [7] is Δphz* biofilms. The experiment in a line: Anoxic survival (CFU) of electrode-attached phenazine-deficient biofilms at poised potential. The format is cell-based, P. aeruginosa UCBPP-PA14; Δphz*. The note with it: 10 μM PYO added, PYO-reductive conditions. As to the method: Electrochemical reactors and biofilm growth. Double-jacketed electrochemical reactors (Pine Instruments, 250 ml, wide center port 29/26) were used with ITO-coated 0.2 mm thick boro-aluminosilicate glass slides (Delta Technologies, 24×60 mm, Rs=7-10Ω) as working electrodes, freshly sanded graphite rods (Alfa Aesar) as counter electrodes, and Ag/AgCl in 3M KCl reference electrodes (BASi). Silver epoxy (Electron Microscopy Sciences) was used to make electrical connection between insulated wire ([…]) and working electrode and was insulated using 5 Minute® expoxy (Devcon). Working electrodes were assembled within 5 hours of use. Reactors were sterilized by autoclaving without reference or working electrodes, which were sterilized by submerging in 10% bleach for 5 minutes or 30 seconds, respectively, and rinsed in sterile water. Individual mid-log liquid cultures (OD600 0.45-0.55) were used to inoculate sterile reactors containing 140 ml of MM (described above) with 0.1% (vol/vol) for each biological replicate. Antibiotics were not added at this point. Working electrodes were poised at either open circuit, +100 mV, or −400 mV vs. Ag/AgCl (+310 mV and −190 mV vs the standard hydrogen electrode, respectively). Reactors were aerated using an aquarium pump with a 0.2 μm filter (Thermo Scientific) and heated to 31° C. using a circulating water bath (Haake A 25, Thermo Scientific). Fresh medium was exchanged every 24 hours for 5 days. After 5 days of aerobic growth, working electrode-attached biofilms were rinsed in sterile medium to remove planktonic cells and transferred to sterile reactors with fresh MM previously flushed for 2 hours with N2 ultra-high purity gas (NRL supply store). For antibiotic exposure experiments, antibiotics were added to sterile media before flushing with N2. […]
Biofilm harvesting and processing. […] SYTO-60 was excited with a 561 nm; 0.20% laser and emission was recorded from 580-700 nm. TOTO-1 was excited with a 488 nm; 0.20% laser and emission was recorded from 490 to 580 nm.

A short description of data set [8]: Midpoint potential E1/2 by voltammetry vs Ag/AgCl (3M KCl). The data set is classed as physicochemical. The note with it: for E1/2 (vs. Ag/AgCl (3M KCl))/mV: Example 15 table. As to the method: The purified redox-active molecule can be dissolved in aqueous solution at appropriate concentration in the presence of supporting electrolyte and buffer to select the pH of measurement. For example, the redox-active molecule can be dissolved in 10 μM-10 mM concentrations in distilled, deionized water (DDW). The supporting electrolyte can be a salt such as NaCl or KCl at 0.01-0.5 M concentrations, for example, dissolved in DDW. The buffer can be 10 mM ammonium acetate/3-(N-morpholino)propanesulfonic acid at pH 7, or phosphate-buffered saline (PBS) at pH 7.4, or sodium acetate buffer at pH 5, or di-sodium hydrogen phosphate/potassium dihydrogen phosphate at pH 9, or boric acid/citric acid/trisodium phosphate for a wide range of pH values, for example.
Voltammetric methods are then used to characterize the electrochemical behavior of the redox-active molecule in such solution, with a potentiostat such as a Gamry PC4-300, using a three-electrode setup with working electrode (glassy carbon, or platinum, or gold), counter electrode (platinum wire) and reference electrode (Ag/AgCl (3M KCl), or SCE, or NHE; values are reported relative to Ag/AgCl (3M KCl) which has potential +197 mV vs. NHE at 298K).
For example, cyclic voltammetry may be used. In a cyclic voltammetry experiment phenazines will show a peak on the cathodic sweep (denoted Epc) corresponding to the reduction of the redox molecule.
The reverse, anodic sweep will show a peak (denoted Epa) corresponding to the re-oxidation of the redox molecule. If the electrode reaction is diffusion-controlled and reversible, the cathodic and anodic peak currents will be equal in area, and the mid-point between these peaks may be taken as the formal reduction potential of the redox molecule under the experimental conditions used. This value can interchangeably be referred to as the “midpoint potential” or “mid-peak potential”, denoted E1/2.
PYO was purified from aerobic bacterial cultures and was dissolved in 0.1 M KCl aqueous solution buffered with 10 mM ammonium acetate-3-(N-morpholino)propanesulfonic acid (5 mM each, pH 7) to yield a stock solution concentration of 829 μM PYO. Electrochemical measurements were performed with a Gamry PC4-300 potentiostat. A stationary gold disk electrode (BASi) was used as the working electrode, an Ag/AgCl electrode (RE-51, BASi) as the reference, and a straight platinum wire (BASi) was the counter electrode. Scans were performed between 20 and 500 mV/s in the potential range of around E1/2 (+/−300 mV), at 298 K.
As described in en.wikipedia.org/wiki/Nernst_equation, the Nernst equation relates E1/2 measured at pH 7 to the E1/2 at a different pH by:
[formula] • where E1/2 is in V • h is the number of protons transferred in the electrochemical reaction • e is the number of electrons transferred in the electrochemical reaction

In data set [9] the test system is P. aeruginosa PA14 liquid cultures. Description: Toxicity of reduced PYO to liquid-grown cells under anoxic conditions. The format is cell-based. The settings on record: 1, 10, and 100 μM reduced PYO, 30 minutes, normalized to untreated. As to the method: FIG. 8: Toxicity of reduced PYO to liquid-grown cells. Exposure of mid-log aerobic P. aeruginosa PA14 liquid cultures to 1, 10, and 100 μM reduced PYO under anoxic conditions. Triplicate data shown normalized to untreated samples with line at mean.
Treatment of liquid cultures with reduced PYO. 100 μM PYO in MM was reduced electrochemically using a dual-chamber reactor with an cation exchange membrane (CMI-7000, Membranes International) to avoid re-oxidation of PYO at the counter electrode. […] chamber contained Ag/AgCl reference electrode, platinum mesh working electrode, and was flushed with N2; while […] chamber was oxic and contained platinum mesh counter electrode. PYO reduction was carried out by poising the working electrode at −400 mV vs. Ag/AgCl for 24 hours, past the point of 100% PYO reduction based on coulombic efficiency, and biochemical reactor was then transferred into the anaerobic chamber. Anoxic vials with pre-equilibrated MM and corresponding concentrations of reduced PYO were then treated with biochemical O2 scavenging system (10 mM glucose+375 nM glucose oxidase+750 nM catalase) for an hour before inoculation. Aerobic liquid cultures of P. aerughnosa in MM at mid-log (OD600=0.5) were spun down and resuspended in fresh media and used to inoculate assays with 10% (vol/vol). […]

`Cn1c2cccc(=O)c-2nc2ccccc21` [Pyocyanin (PYO), Pyocyanin]: in data set [1], the “E1/2 vs Ag/AgCl in biofilm square wave voltammograms” value is −250 mV. In addition, the “Reduction by PA14?” value in [2] is on record as “Yes”. Moreover, the “E0' (vs. NHE) (mV)” value in [3] is reported as −40^a mV. The “E1/2 (vs. Ag/AgCl (3M KCl))/mV” value in [4] (pH 5) is listed as −128 mV; in data set [4] (pH 6), −189 mV; in data set [4] (pH 7), −237 mV; in data set [4] (pH 8), −300 mV; in [8] (pH 5), −128 mV; in data set [8] (pH 6), −189 mV. Also, the “E1/2 (vs. Ag/AgCl (3M KCl))/mV” value in data set [8] (pH 7) is −237 mV; in data set [8] (pH 8), −300 mV. Besides, the “Redox potentials E (mV)” value in data set [5] is recorded as −34 mV. Besides, the “Support survival?” value in data set [6] is “Yes”. Moreover, in data set [6] (over 7 days), the “# of Redox cycles over 7 days” value is given as 31. The “effect of PYO addition on Δphz* biofilm CFUs (in words)” value was “sensitized under PYO-reductive conditions” in data set [7] (listed as PYO) and “re-sensitized” in data set [7] (listed as pyocyanin). Moreover, the “E1/2 estimated vs. Ag/AgCl (3M KCl)” value in data set [8] (pH 6, estimated) was −178 mV. Besides, the “E1/2 vs. Ag/AgCl (3M KCl)” value in data set [8] (pH 7, 298 K, 0.1 M KCl, gold disk working electrode) is recorded as −237 mV. In data set [8] (pH 7, 298 K, corrected to NHE by adding 197 mV), the “E1/2 vs. NHE” value is given as −40 mV. In [8] (pH 8, estimated from pH 7 value), the “E1/2 estimated by Nernst equation” value is reported as −296 mV.
As for `CN1c2ccccc2Nc2c(O)cccc21` [reduced PYO], the “decrease in CFUs of liquid cultures” value in data set [9] is “two- to threefold decrease in CFUs”.

Source of the values: patent publication US20250058002A1, “ELECTROCHEMICAL INHIBITION OF REDOX ACTIVE BACTERIA AND RELATED DEVICES, METHODS AND SYSTEMS” (priority 2023, published 2025).
